Laboratory results published in patent US20210317134A1, “UBIQUITIN-SPECIFIC-PROCESSING PROTEASE 7 (USP7) MODULATORS AND USES THEREOF” (RAPT THERAPEUTICS, INC., priority 2019, published 2021).

Target: USP7 (Homo sapiens, UniProt Q93009)
Experiment: USP7 inhibitory potency (Table 1)
Type: biochemical

Chain of USP7 (Q93009 whole entry): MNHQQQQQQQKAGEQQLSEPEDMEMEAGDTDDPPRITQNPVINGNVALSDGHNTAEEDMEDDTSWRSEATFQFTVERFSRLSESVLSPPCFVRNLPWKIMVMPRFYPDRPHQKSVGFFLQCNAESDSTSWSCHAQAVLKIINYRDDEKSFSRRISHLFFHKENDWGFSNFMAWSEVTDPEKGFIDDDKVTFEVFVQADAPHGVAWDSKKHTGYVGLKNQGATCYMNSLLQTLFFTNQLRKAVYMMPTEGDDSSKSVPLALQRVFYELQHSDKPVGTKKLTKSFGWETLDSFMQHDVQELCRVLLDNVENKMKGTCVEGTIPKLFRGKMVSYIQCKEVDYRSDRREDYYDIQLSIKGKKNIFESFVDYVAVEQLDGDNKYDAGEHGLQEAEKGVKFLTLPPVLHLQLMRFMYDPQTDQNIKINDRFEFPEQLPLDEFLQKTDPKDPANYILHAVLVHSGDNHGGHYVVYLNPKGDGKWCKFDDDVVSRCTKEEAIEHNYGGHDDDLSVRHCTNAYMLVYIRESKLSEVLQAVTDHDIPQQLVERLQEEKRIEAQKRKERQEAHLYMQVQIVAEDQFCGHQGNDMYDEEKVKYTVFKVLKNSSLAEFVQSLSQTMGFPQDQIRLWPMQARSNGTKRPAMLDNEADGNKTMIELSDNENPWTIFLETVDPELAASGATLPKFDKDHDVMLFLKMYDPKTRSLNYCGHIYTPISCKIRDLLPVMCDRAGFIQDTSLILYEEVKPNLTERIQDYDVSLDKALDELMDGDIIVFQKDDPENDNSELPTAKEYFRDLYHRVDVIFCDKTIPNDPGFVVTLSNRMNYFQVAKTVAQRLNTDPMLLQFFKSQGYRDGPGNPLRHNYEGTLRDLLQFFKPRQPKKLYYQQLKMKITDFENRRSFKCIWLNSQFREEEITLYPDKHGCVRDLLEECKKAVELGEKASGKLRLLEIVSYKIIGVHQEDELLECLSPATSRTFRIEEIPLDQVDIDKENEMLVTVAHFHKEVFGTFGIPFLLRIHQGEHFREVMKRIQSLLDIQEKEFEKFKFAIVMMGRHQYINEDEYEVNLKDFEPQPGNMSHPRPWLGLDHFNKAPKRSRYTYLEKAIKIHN

SMILES | IC50
O=C([C@H]1Cc2cc(Cl)cc(-c3ccnc4ccsc34)c2O1)N1CCC(N2CCCCC2)CC1 [(R)-[1,4′-bipiperidin]-1′-yl(5-chloro-7-(thieno[3,2-b]pyridin-7-yl)-2,3-dihydrobenzofuran-2-yl)methanone] | 1000 to 10000 nM
CC[C@H](O)c1cc2nccc(-c3cc(Cl)cc4c3O[C@](C)(c3onc5c3CNCC5)C4)c2s1 [(S)-1-(7-((S)-5-chloro-2-methyl-2-(4,5,6,7-tetrahydroisoxazolo[4,3-c]pyridin-3-yl)-2,3-dihydrobenzofuran-7-yl)thieno[3,2-b]pyridin-2-yl)propan-1-ol] | 1000 to 10000 nM
O=C([C@@H]1Cc2cc(Cl)cc(-c3ccnc4cc(CO)sc34)c2O1)N1CCNCC1 [(S)-(5-chloro-7-(2-(hydroxymethyl)thieno[3,2-b]pyridin-7-yl)-2,3-dihydrobenzofuran-2-yl)(piperazin-1-yl)methanone] | 1000 to 10000 nM
CC(=O)NC(C)c1cc2nccc(-c3cc(Cl)cc4c3O[C@@H](c3onc5c3CNCC5)C4)c2s1 (stereo partly drawn) [N-(1-(7-((R)-5-chloro-2-(4,5,6,7-tetrahydroisoxazolo[4,3-c]pyridin-3-yl)-2,3-dihydrobenzofuran-7-yl)thieno[3,2-b]pyridin-2-yl)ethyl)acetamide] | < 1000 nM
CC(=O)NC(C)c1cc2nccc(-c3cc(Cl)cc4c3O[C@@H](C(=O)N3CCNCC3)C4)c2s1 (stereo partly drawn) [N-(1-(7-((R)-5-chloro-2-(piperazine-1-carbonyl)-2,3-dihydrobenzofuran-7-yl)thieno[3,2-b]pyridin-2-yl)ethyl)acetamide] | < 1000 nM
CC(=O)NC(C)Cc1cc2nccc(-c3cc(Cl)cc4c3O[C@@H](C(=O)N3CCNCC3)C4)c2s1 (stereo partly drawn) [N-(1-(7-((R)-5-chloro-2-(piperazine-1-carbonyl)-2,3-dihydrobenzofuran-7-yl)thieno[3,2-b]pyridin-2-yl)propan-2-yl)acetamide] | < 1000 nM
CC(Cc1cc2nccc(-c3cc(Cl)cc4c3O[C@@H](C(=O)N3CCNCC3)C4)c2s1)NS(C)(=O)=O (stereo partly drawn) [N-(1-(7-((R)-5-chloro-2-(piperazine-1-carbonyl)-2,3-dihydrobenzofuran-7-yl)thieno[3,2-b]pyridin-2-yl)propan-2-yl)methanesulfonamide] | < 1000 nM
CCC(NC(C)=O)c1cc2nccc(-c3cc(Cl)cc4c3O[C@@H](C(=O)N3CCNCC3)C4)c2s1 (stereo partly drawn) [N-(1-(7-((R)-5-chloro-2-(piperazine-1-carbonyl)-2,3-dihydrobenzofuran-7-yl)thieno[3,2-b]pyridin-2-yl)propyl)acetamide] | < 1000 nM
CC(=O)NCC1Cc2nccc(-c3cc(Cl)cc4c3O[C@@H](C(=O)N3CCNCC3)C4)c2C1 (stereo partly drawn) [N-((4-((R)-5-chloro-2-(piperazine-1-carbonyl)-2,3-dihydrobenzofuran-7-yl)-6,7-dihydro-5H-cyclopenta[b]pyridin-6-yl)methyl)acetamide] | 1000 to 10000 nM
CC(NCc1cc2nccc(-c3cc(Cl)cc4c3O[C@@H](c3onc5c3CNCC5)C4)c2s1)C(F)(F)F (stereo partly drawn) [N-((7-((R)-5-chloro-2-(4,5,6,7-tetrahydroisoxazolo[4,3-c]pyridin-3-yl)-2,3-dihydrobenzofuran-7-yl)thieno[3,2-b]pyridin-2-yl)methyl)-1,1,1-trifluoropropan-2-amine] | < 1000 nM
O=C(NCc1ccccc1)c1cc2c(-c3cc(Cl)cc4c3OC(C(=O)N3CCNCC3)C4)ccnc2[nH]1 (stereo not shown) [N-benzyl-4-(5-chloro-2-(piperazine-1-carbonyl)-2,3-dihydrobenzofuran-7-yl)-1H-pyrrolo[2,3-b]pyridine-2-carboxamide] | 1000 to 10000 nM
CCC(O)c1cc2nccc(-c3cc(Cl)cc4c3O[C@@H](c3onc5c3CN(C)CC5)C4)c2s1 (stereo partly drawn) [drawing 1521, 1-(7-((R)-5-chloro-2-(5-methyl-4,5,6,7-tetrahydroisoxazolo[4,3-c]pyridin-3-yl)-2,3-dihydrobenzofuran-7-yl)thieno[3,2-b]pyridin-2-yl)propan-1-ol] | < 1000 nM
CCC(O)c1cc2nccc(-c3cc(Cl)cc4c3O[C@@H](c3onc5c3CNCC5)C4)c2o1 (stereo partly drawn) [drawing 1522, 1-(7-((R)-5-chloro-2-(4,5,6,7-tetrahydroisoxazolo[4,3-c]pyridin-3-yl)-2,3-dihydrobenzofuran-7-yl)furo[3,2-b]pyridin-2-yl)propan-1-ol] | < 1000 nM
CCC(O)c1cc2nccc(-c3cc(Cl)cc4c3O[C@@H](c3onc5c3CNCC5)C4)c2s1 (stereo partly drawn) [drawing 1523, 1-(7-((R)-5-chloro-2-(4,5,6,7-tetrahydroisoxazolo[4,3-c]pyridin-3-yl)-2,3-dihydrobenzofuran-7-yl)thieno[3,2-b]pyridin-2-yl)propan-1-ol] | < 1000 nM
CCC(O)c1cc2nccc(-c3cc(Cl)cc4c3O[C@@H](c3onc5c3CNCC5)C4)c2s1 (stereo partly drawn) [drawing 1570, 1-(7-((R)-5-chloro-2-(4,5,6,7-tetrahydroisoxazolo[4,3-c]pyridin-3-yl)-2,3-dihydrobenzofuran-7-yl)thieno[3,2-b]pyridin-2-yl)propan-1-ol] | < 1000 nM
CCC(O)c1cc2nccc(-c3cc(Cl)cc4c3O[C@@H](c3onc5c3CN(C)CC5)C4)c2s1 (stereo partly drawn) [drawing 1573, 1-(7-((R)-5-chloro-2-(5-methyl-4,5,6,7-tetrahydroisoxazolo[4,3-c]pyridin-3-yl)-2,3-dihydrobenzofuran-7-yl)thieno[3,2-b]pyridin-2-yl)propan-1-ol] | < 1000 nM
CCC(O)c1cc2ncnc(-c3cc(Cl)cc4c3O[C@@H](c3onc5c3CNCC5)C4)c2s1 (stereo partly drawn) [drawing 1579, 1-(4-((R)-5-chloro-2-(4,5,6,7-tetrahydroisoxazolo[4,3-c]pyridin-3-yl)-2,3-dihydrobenzofuran-7-yl)thieno[3,2-d]pyrimidin-6-yl)propan-1-ol] | < 1000 nM
CCC(O)c1cc2ncnc(-c3cc(Cl)cc4c3O[C@@H](c3onc5c3CNCC5)C4)c2s1 (stereo partly drawn) [drawing 1596, 1-(4-((R)-5-chloro-2-(4,5,6,7-tetrahydroisoxazolo[4,3-c]pyridin-3-yl)-2,3-dihydrobenzofuran-7-yl)thieno[3,2-d]pyrimidin-6-yl)propan-1-ol] | < 1000 nM
CCC(O)c1cc2nccc(-c3cc(Cl)cc4c3O[C@@H](c3onc5c3CNCC5)C4)c2o1 (stereo partly drawn) [drawing 1618, 1-(7-((R)-5-chloro-2-(4,5,6,7-tetrahydroisoxazolo[4,3-c]pyridin-3-yl)-2,3-dihydrobenzofuran-7-yl)furo[3,2-b]pyridin-2-yl)propan-1-ol] | < 1000 nM
COC(=O)c1ccc2c(-c3cc(Cl)cc4c3OC(C(=O)N3CCNCC3)C4)ccnc2c1 (stereo not shown) [methyl 4-(5-chloro-2-(piperazine-1-carbonyl)-2,3-dihydrobenzofuran-7-yl)quinoline-7-carboxylate] | 10000 to 30000 nM

Other lines, results leading:

IC50 | SMILES
< 1000 nM | CC(=O)NCc1cc2nccc(-c3cc(Cl)cc4c3O[C@@H](C(=O)N3CCNCC3)C4)c2s1 [(R)-N-((7-(5-chloro-2-(piperazine-1-carbonyl)-2,3-dihydrobenzofuran-7-yl)thieno[3,2-b]pyridin-2-yl)methyl)acetamide]
< 1000 nM | CS(=O)(=O)NCc1cc2nccc(-c3cc(Cl)cc4c3O[C@@H](C(=O)N3CCNCC3)C4)c2s1 [(R)-N-((7-(5-chloro-2-(piperazine-1-carbonyl)-2,3-dihydrobenzofuran-7-yl)thieno[3,2-b]pyridin-2-yl)methyl)methanesulfonamide]
< 1000 nM | O=C([C@H]1Cc2cc(Cl)cc(-c3ccnc4cc(CO)sc34)c2O1)N1CCC(N2CCCCC2)CC1 [(R)-[1,4′-bipiperidin]-1′-yl(5-chloro-7-(2-(hydroxymethyl)thieno[3,2-b]pyridin-7-yl)-2,3-dihydrobenzofuran-2-yl)methanone]
< 1000 nM | CC[C@H](O)c1cc2ncnc(-c3cc(Cl)cc4c3O[C@@H](c3onc5c3CNCC5)C4)c2s1 [(S)-1-(4-((R)-5-chloro-2-(4,5,6,7-tetrahydroisoxazolo[4,3-c]pyridin-3-yl)-2,3-dihydrobenzofuran-7-yl)thieno[3,2-d]pyrimidin-6-yl)propan-1-ol]
< 1000 nM | CC[C@H](O)c1cc2nccc(-c3cc(Cl)cc4c3O[C@@H](c3onc5c3CNCC5)C4)c2s1 [(S)-1-(7-((R)-5-chloro-2-(4,5,6,7-tetrahydroisoxazolo[4,3-c]pyridin-3-yl)-2,3-dihydrobenzofuran-7-yl)thieno[3,2-b]pyridin-2-yl)propan-1-ol]
< 1000 nM | CC[C@H](O)c1cc2nccc(-c3cc(Cl)cc4c3O[C@@](C)(c3onc5c3CNCC5)C4)c2s1 [(S)-1-(7-((R)-5-chloro-2-methyl-2-(4,5,6,7-tetrahydroisoxazolo[4,3-c]pyridin-3-yl)-2,3-dihydrobenzofuran-7-yl)thieno[3,2-b]pyridin-2-yl)propan-1-ol]
< 1000 nM | C[C@H]1CCN(Cc2cc3nccc(-c4cc(Cl)cc5c4O[C@@H](C(=O)N4CCNCC4)C5)c3s2)C1=O [(S)-1-((7-((R)-5-chloro-2-(piperazine-1-carbonyl)-2,3-dihydrobenzofuran-7-yl)thieno[3,2-b]pyridin-2-yl)methyl)-3-methylpyrrolidin-2-one]
< 1000 nM | Clc1cc2c(c(-c3ccnc4ccsc34)c1)O[C@H](c1onc3c1CNCC3)C2 [(S)-3-(5-chloro-7-(thieno[3,2-b]pyridin-7-yl)-2,3-dihydrobenzofuran-2-yl)-4,5,6,7-tetrahydroisoxazolo[4,3-c]pyridine]
< 1000 nM | O[C@@]1(c2cc3nccc(-c4cc(Cl)cc5c4O[C@@H](c4onc6c4CNCC6)C5)c3s2)CCOC1 [(S)-3-(7-((R)-5-chloro-2-(4,5,6,7-tetrahydroisoxazolo[4,3-c]pyridin-3-yl)-2,3-dihydrobenzofuran-7-yl)thieno[3,2-b]pyridin-2-yl)tetrahydrofuran-3-ol]
< 1000 nM | COC(=O)NCc1cc2nccc(-c3cc(Cl)cc4c3O[C@@H](c3onc5c3CNCC5)C4)c2s1 [Methyl (R)-((7-(5-chloro-2-(4,5,6,7-tetrahydroisoxazolo[4,3-c]pyridin-3-yl)-2,3-dihydrobenzofuran-7-yl)thieno[3,2-b]pyridin-2-yl)methyl)carbamate]
< 1000 nM | CC(=O)NC(C)c1cc2nccc(-c3cc(Cl)cc4c3O[C@@H](c3c5c(nn3C)CCNC5)C4)c2s1 (stereo partly drawn) [N-(1-(7-((R)-5-chloro-2-(2-methyl-4,5,6,7-tetrahydro-2H-pyrazolo[4,3-c]pyridin-3-yl)-2,3-dihydrobenzofuran-7-yl)thieno[3,2-b]pyridin-2-yl)ethyl)acetamide]
